The assay has as its target T1, hSCN3A sodium channels (Homo sapiens, UniProt Q9NY46).
T1 construct: expressed in transfected cells
Put plainly: hSCN3A electrophysiology, whole-cell patch-clamp or PatchXpress 7000, estimated IC-50 (Table B). It is filed as cell-based. The conditions noted are these: estimated IC-50; hSCN3A cells, whole-cell patch-clamp or PatchXpress 7000; read-out: SCN3A EIC-50. Here is the method:
Human Embryonic Kidney (HEK) cells were transfected with an hSCN3A construct using lipofectamine reagent (Invitrogen), using standard techniques. […] Clones were screened for expression using the whole-cell voltage-clamp technique.
HEK cells stably transfected with hSCN3A were maintained in DMEM medium supplemented with 10% heat-inactivated fetal bovine serum and 400 μg/ml G418 sulfate in an incubator at 37° C. with a humidified atmosphere of 10% CO2. […] For electrophysiological studies, cells were removed from the culture flask by brief trypsinization and replated at low density onto glass cover slips. Cells were typically used for electrophysiological experiments within 24 to 72 h after plating.
All recordings were made at room temperature (22-24° C.) using AXOPATCH 200B amplifiers and PCLAMP software (Axon Instruments, Burlingame, Calif.) or PatchXpress 7000 hardware and associated software (Axon Instruments, Burlingame, Calif.).
Current records were acquired at 20 to 50 KHz and filtered at 5 to 10 KHz.
HEK cells stably transfected with hSCN3A were viewed under Hoffman contrast optics and placed in front of an array of flow pipes emitting either control or compound-containing extracellular solutions. All compounds were dissolved in dimethyl sulfoxide to make 10 mM stock solutions, which were then diluted into extracellular solution to attain the final concentrations desired.
The voltage-dependence of inactivation was determined by applying a series of depolarizing prepulses (8 sec long in 10 mV increments) from a negative holding potential. The voltage was then immediately stepped to 0 mV to assess the magnitude of the sodium current. Currents elicited at 0 mV were plotted as a function of prepulse potential to allow estimation of the voltage midpoint of inactivation (V1/2). Cells were then voltage clamped at the empirically determined V1/2.
Compounds were tested for their ability to inhibit hSCN3A sodium channels by activating the channel with a 20 msec voltage step to 0 mV following an 8 second conditioning prepulse to the empirically determined V1/2 (Table B). Compound effect (% inhibition) was determined by difference in current amplitude before and after application of test compounds. […] Inhibition values <20% and >80% were excluded from the calculation.
In some cases electrophysiological assays were conducted with PatchXpress 7000 hardware and associated software (Molecular Devices Corp) (Table B). All assay buffers and solutions were identical to those used in conventional whole-cell voltage clamp experiments described above. hSCN3A cells were grown as above to 50%-80% confluency and harvested by trypsinization. Trypsinized cells were washed and resuspended in extracellular buffer at a concentration of 1×10^6 cells/ml. The onboard liquid handling facility of the PatchXpress was used for dispensing cells and application of test compounds. Determination of the voltage midpoint of inactivation was as described for conventional whole-cell recordings. Cells were then voltage-clamped to the empirically determined V1/2 and current was activated by a 20 msec voltage step to 0 mV.

The structures appear in SMILES notation.

T1 sequence (Q9NY46 whole entry): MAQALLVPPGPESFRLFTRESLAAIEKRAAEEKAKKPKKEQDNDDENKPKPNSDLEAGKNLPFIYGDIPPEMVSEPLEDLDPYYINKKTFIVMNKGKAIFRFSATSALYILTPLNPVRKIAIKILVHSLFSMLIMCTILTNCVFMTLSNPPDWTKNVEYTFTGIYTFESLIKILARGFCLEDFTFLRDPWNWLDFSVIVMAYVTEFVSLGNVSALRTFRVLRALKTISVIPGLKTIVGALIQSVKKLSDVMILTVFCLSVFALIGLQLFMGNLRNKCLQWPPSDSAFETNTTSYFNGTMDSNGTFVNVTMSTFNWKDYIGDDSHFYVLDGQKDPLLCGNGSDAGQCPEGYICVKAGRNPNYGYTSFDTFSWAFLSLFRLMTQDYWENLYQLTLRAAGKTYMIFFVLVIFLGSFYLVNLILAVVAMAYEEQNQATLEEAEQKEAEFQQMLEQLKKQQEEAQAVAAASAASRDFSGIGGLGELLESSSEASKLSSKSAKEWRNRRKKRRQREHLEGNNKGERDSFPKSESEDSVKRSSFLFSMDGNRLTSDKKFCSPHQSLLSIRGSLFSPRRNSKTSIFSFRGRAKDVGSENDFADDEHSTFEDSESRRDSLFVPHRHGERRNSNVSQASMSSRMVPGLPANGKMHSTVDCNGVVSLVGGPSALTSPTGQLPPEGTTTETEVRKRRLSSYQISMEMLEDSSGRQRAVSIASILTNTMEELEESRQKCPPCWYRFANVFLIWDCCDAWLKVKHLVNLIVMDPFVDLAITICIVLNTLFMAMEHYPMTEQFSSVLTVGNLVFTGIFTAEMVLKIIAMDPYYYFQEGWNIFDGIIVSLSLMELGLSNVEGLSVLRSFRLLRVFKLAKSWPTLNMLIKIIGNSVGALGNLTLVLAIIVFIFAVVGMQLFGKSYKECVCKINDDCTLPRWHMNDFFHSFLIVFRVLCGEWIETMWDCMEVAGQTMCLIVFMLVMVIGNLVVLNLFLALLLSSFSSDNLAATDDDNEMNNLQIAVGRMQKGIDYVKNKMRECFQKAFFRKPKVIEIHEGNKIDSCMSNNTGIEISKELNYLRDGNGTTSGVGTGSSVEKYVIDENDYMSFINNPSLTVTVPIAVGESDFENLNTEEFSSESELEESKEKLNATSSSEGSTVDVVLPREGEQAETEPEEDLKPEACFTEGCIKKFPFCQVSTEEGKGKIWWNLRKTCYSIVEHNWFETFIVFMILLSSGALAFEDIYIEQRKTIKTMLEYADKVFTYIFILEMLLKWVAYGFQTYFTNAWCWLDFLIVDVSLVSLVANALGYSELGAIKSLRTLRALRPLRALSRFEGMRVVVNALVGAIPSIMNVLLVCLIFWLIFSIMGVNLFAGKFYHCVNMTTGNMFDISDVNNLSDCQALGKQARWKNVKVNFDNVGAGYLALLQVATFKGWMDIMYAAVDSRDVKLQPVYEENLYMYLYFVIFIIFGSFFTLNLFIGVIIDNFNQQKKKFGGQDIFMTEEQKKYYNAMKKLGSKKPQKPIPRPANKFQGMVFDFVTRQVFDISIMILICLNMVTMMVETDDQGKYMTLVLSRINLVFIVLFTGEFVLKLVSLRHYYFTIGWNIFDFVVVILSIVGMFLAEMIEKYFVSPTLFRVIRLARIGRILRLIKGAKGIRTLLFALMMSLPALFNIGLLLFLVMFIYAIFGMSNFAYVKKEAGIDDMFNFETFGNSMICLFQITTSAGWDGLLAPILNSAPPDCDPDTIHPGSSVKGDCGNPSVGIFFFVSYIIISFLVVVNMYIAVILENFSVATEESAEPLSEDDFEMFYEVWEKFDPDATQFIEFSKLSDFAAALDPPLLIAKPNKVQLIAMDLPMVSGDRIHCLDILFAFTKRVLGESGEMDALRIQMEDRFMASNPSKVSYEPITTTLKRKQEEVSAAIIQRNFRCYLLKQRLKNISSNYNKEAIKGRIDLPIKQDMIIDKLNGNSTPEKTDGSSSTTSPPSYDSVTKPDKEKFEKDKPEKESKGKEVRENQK

Turning to `O=C(NCc1ccc(C(F)(F)F)cc1)c1ccc(S(=O)(=O)Nc2cscn2)cc1` [Example 13, 4-[(1,3-Thiazol-4-ylamino)sulfonyl]-N-[4-(trifluoromethyl)benyzyl]benzamide], the IC50 was 0.68 µM.
For `O=C(NCc1ccc(C(F)(F)F)cc1)c1ccc(S(=O)(=O)Nc2cncs2)cc1` [Example 14, 4-[(1,3-Thiazol-5-ylamino)sulfonyl]-N-[4-(trifluoromethyl)benzyl]benzamide] the value was 28.1 µM; for `Cc1nc(NS(=O)(=O)c2ccc(C(=O)NCc3ccc(C(F)(F)F)cc3)cc2)cs1` [Example 15, 4-{[(2-Methyl-1,3-thiazol-4-yl)amino]sulfonyl}-N-[4-(trifluoromethyl)benzyl]benzamide], 31 µM; for `Cc1ncc(NS(=O)(=O)c2ccc(C(=O)NCc3ccc(C(F)(F)F)cc3)cc2)s1` [Example 16, 4-{[(2-Methyl-1,3-thiazol-5-yl)amino]sulfonyl}-N-[4-(trifluoromethyl)benzyl]benzamide], more than 10 µM.
For `COC(=O)c1csc(NS(=O)(=O)c2ccc(C(=O)NCc3ccc(C(F)(F)F)cc3)cc2)n1` [Example 17, Methyl 2-({[4-({[4-(trifluoromethyl)benzyl]amino}carbonyl)phenyl]sulfonyl}amino)-1,3-thiazole-4-carboxylate], the IC50 was 2.94 µM.
With `Cc1cc(NS(=O)(=O)c2ccc(C(=O)NCc3ccc(C(F)(F)F)cc3)cc2)no1` [Example 18, 4-{[(5-Methylisoxazol-3-yl)amino]sulofnyl}-N-[4-(trifluoromethyl)benzyl]benzamide], the IC50 was 2.26 µM.
With `CCc1nsc(NS(=O)(=O)c2ccc(C(=O)NCc3ccc(C(F)(F)F)cc3)cc2)n1` [Example 19, 4-{[(3-Ethyl-1,2,4-thiadiazol-5-yl)amino]sulfonyl}-N-[4-(trifluoromethyl)benzyl]benzamide] the figure was 13.8 µM.
For `O=C(NCc1ccc(C(F)(F)F)cc1)c1ccc(S(=O)(=O)Nc2ncns2)cc1` [Example 20, 4-[(1,2,4-Thiadiazol-5-ylamino)sulfonyl]-N-[4-(trifluoromethyl)benzyl]benzamide] the value was 0.26 µM.
For `O=C(NCc1ccc(C(F)(F)F)cc1)c1ccc(S(=O)(=O)Nc2nncs2)cc1` [Example 21, 4-[(1,3,4-Thiadiazol-2-ylamino)sulfonyl]-N-[4-(trifluoromethyl)benzyl]benzamide] the value was 1.97 µM; for `Cc1cnc(NS(=O)(=O)c2ccc(C(=O)NCc3ccc(C(F)(F)F)cc3)cc2)s1` [Example 22, 4-{[(5-methyl-1,3-thiazol-2-yl)amino]sulfonyl}-N-[4-(trifluoromethyl)benzyl] benzamide], 0.95 µM.
For the compound `O=C(NCc1ccc(C(F)(F)F)cc1)c1ccc(S(=O)(=O)Nc2cnoc2)cc1` [Example 23, 4-[(Isoxazol-4-ylamino)sulfonyl]-N-[4-(trifluoromethyl)benzyl]benzamide], the IC50 was 23.3 µM.
With `O=C(NCc1ccc(C(F)(F)F)cc1)c1ccc(S(=O)(=O)Nc2ccn[nH]2)cc1` [Example 24, 4-[(1H-Pyrazol-5-ylamino)sulfonyl]-N-[4-(trifluoromethyl)benzyl]benzamide] the figure was more than 10 µM.
On to `Cc1noc(C)c1NS(=O)(=O)c1ccc(C(=O)NCc2ccc(C(F)(F)F)cc2)cc1` [Example 26, 4-{[(3,5-Dimethylisoxazol-4-yl)amino]sulfonyl}-N-[4-(trifluoromethyl)benzyl]benzamide], for which the IC50 was more than 10 µM.
Consider `Cc1nn(C)c(C)c1NS(=O)(=O)c1ccc(C(=O)NCc2ccc(C(F)(F)F)cc2)cc1` [Example 27, N-[4-(Trifluoromethyl)benzyl]-4-{[(1,3,5-trimethyl-1H-pyrazol-4-yl)amino]sulfonyl}benzamide], for which the IC50 is 23.3 µM.
For `O=C(NCc1cccc(C(F)(F)F)c1)c1ccc(S(=O)(=O)Nc2ncc(Cl)s2)cc1` [Example 28, 4-{[(5-Chloro-1,3-thiazol-2-yl)amino]sulfonyl}-N-[3-(trifluoromethyl)benzyl]benzamide], the IC50 was 0.24 µM.

(Values after US8741934B2, “Inhibitors of ion channels” (Pfizer Limited, priority 2007, dated 2014).)
